Data on 11 compounds can be found in US20220073536A1 (Rigel Pharmaceuticals, Inc., priority 2003, published 2022).

The test system of the assay is cultured human mast cells (CHMC). Put plainly: CHMC low cell density IgE activation: tryptase assay. Format: cell-based. In a few lines: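 Tryptase release, fluorogenic substrate, 30 min RT. Prior anti-IgE stimulation of CHMC, 30 min, 37 °C, after 1 hr preincubation at 1000–1500 cells/well in MT; unstimulated wells received MT.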
Where [1] appears, read: low cell density, IgE activation, 3 pt, read-out: LD Tryptase, CHMC, IgE, 3 pt.
The mark [2] stands for this setting: low cell density, IgE activation, 8 pt, read-out: LD Tryptase, CHMC, IgE, 8 pt.
Where [3] appears, read: Homo sapiens, Mast cell, low cell density, IgE activation, 8 pt, read-out: LD Tryptase, CHMC, IgE, 8 pt.

pIC50: −log10 of the molar value. Counter-ions that a name gives are not always drawn. Like-named read-outs stand apart in the source and are kept apart here.

On to `CCN(CC)Cc1nc2cc(Nc3ncc(F)c(Nc4ccc5c(n4)NC(=O)C(C)(C)O5)n3)ccc2n1C` [Compound 974, N2-[2-(N,N-Diethylaminomethyl)-1-methylbenzimidazol-5-yl]-N4-(2,2-dimethyl-3-oxo-4H-5-pyrido[1,4]oxazin-6-yl)-5-fluoro-2,4-pyrimidinediamine], for which the pIC50 runs as follows: under setting [1], over 5.00; under setting [2], over 5.00.
As to `CC1(C)Oc2ccc(Nc3nc(Nc4ccc5[nH]c(N6CCOCC6)nc5c4)ncc3F)cc2NC1=O` [Compound 976, N4-(2,2-Dimethyl-3-oxo-4H-benz[1,4]oxazin-6-yl)-5-fluoro-N2-[2-(4-morpholino)-1H-benzimidazol-5-yl]-2,4-pyrimidinediamine], the pIC50 under setting [3] is over 5.00.
Consider `CC1(C)Oc2ccc(Nc3nc(Nc4ccc5[nH]c(N6CCOCC6)nc5c4)ncc3F)nc2NC1=O` [Compound 977, N4-(2,2-Dimethyl-3-oxo-4H-5-pyrido[1,4]oxazin-6-yl)-5-fluoro-N2-[2-(4-morpholino)-1H-benzimidazol-5-yl]-2,4-pyrimidinediamine], for which the pIC50 under setting [3] was over 5.00.
Consider `COc1ccc(Nc2nc(Nc3ccc4[nH]c(N5CCOCC5)nc4c3)ncc2F)cc1Cl` [Compound 978, N4-(3-Chloro-4-methoxyphenyl)-5-fluoro-N2-[2-(4-morpholino)-1H-benzimidazol-5-yl]-2,4-pyrimidinediamine], for which, under setting [2], the pIC50 is over 5.00.
For `CNC(=O)COc1cccc(Nc2ncc(F)c(Nc3ccc4c(n3)NC(=O)C(C)(C)O4)n2)c1` [Compound 984, N4-(2,2-Dimethyl-3-oxo-4H-5-pyrid[1,4]oxazin-6-yl)-5-fluoro-N2-[3-(N-methylamino)carbonylmethyleneoxyphenyl]-2,4-pyrimidinediamine Benzensulfonic Acid Salt], the pIC50 (Homo sapiens, Mast cell, read-out: LD Tryptase, CHMC, IgE, 3 pt) is over 5.00 and the pIC50 (Homo sapiens, Mast cell, read-out: LD Tryptase, CHMC, IgE, 8 pt) is over 5.00.
For the compound `CNC(=O)COc1cccc(Nc2ncc(F)c(Nc3ccc4c(n3)NC(=O)C(C)(C)O4)n2)c1` [Compound 986, N4-(2,2-Dimethyl-3-oxo-4H-5-pyrid[1,4]oxazin-6-yl)-5-fluoro-N2-[3-(N-methylamino)carbonylmethyleneoxyphenyl]-2,4-pyrimidinediamine Hydrogen Chloride Salt], the pIC50 reads like this: under setting [1], over 5.00; under setting [2], over 5.00.
As to `CNC(=O)COc1cccc(Nc2ncc(F)c(Nc3ccc4c(c3)NCC(C)(C)O4)n2)c1` [Compound 1000, N4-(3,4-Dihydro-2,2-dimethyl-4H-benz[1,4]oxazin-6-yl)-5-fluoro-N2-[3-(N-methylamino)carbonylmethyleneoxyphenyl]-2,4-pyrimidinediamine], the pIC50 under setting [2] was over 5.00.
Still for that read-out and setting: next, `COc1c(C)cc(Nc2ncc(F)c(Nc3ccc4c(c3)NCC(C)(C)O4)n2)cc1Cl` [Compound 1001, N2-(3-Chloro-4-methoxy-5-methylphenyl)-N4-(3,4-dihydro-2,2-dimethyl-4H-benz[1,4]oxazin-6-yl)-5-fluoro-2,4-pyrimidinediamine]: over 5.00.
Consider `COc1cc(Nc2ncc(F)c(Nc3ccc4c(c3)NCC(C)(C)O4)n2)cc(OC)c1` [Compound 1002, N4-(3,4-Dihydro-2,2-dimethyl-4H-benz[1,4]oxazin-6-yl)-N2-(3,5-dimethoxyphenyl)-5-fluoro-2,4-pyrimidinediamine], for which, under setting [2], the pIC50 was over 5.00.
For `CC(C)c1cccc(Nc2ncc(F)c(Nc3ccc4c(n3)NC(=O)C(C)(C)O4)n2)c1` [Compound 1003, N4-(2,2-Dimethyl-3-oxo-4H-5-pyrid[1,4]oxazin-6-yl)-5-fluoro-N2-(3-isopropylphenyl)-2,4-pyrimidinediamine], the pIC50 was over 5.00 under setting [1] and over 5.00 under setting [2].
Take `CC1(C)Oc2ccc(Nc3nc(Nc4ccc(-c5ncco5)cc4)ncc3F)nc2NC1=O` [Compound 1035, N4-(2,2-Dimethyl-3-oxo-4H-5-pyrid[1,4]oxazin-6-yl)-5-fluoro-N2-[4-(oxazol-2-yl)phenyl]-2,4-pyrimidinediamine]: the pIC50 (low cell density CHMC, IgE activation, tryptase readout, 8 pt, read-out: LD Tryptase, CHMC, IgE, 8 pt) is under 5.00.
